33 molecules from patent publication US12435061B2 (priority 2020, dated 2025) can be followed below.

One data set deals with hTRPV3 (Homo sapiens (Human), UniProt Q8NET8). The data set is described as follows: Whole-cell patch clamp, hTRPV3 Phase 1 / Phase 2 currents. The format is cell-based. The essentials: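 Currents are activated by 20 μM 2-APB or by perfusate at 28 °C or warmer, in Ringer's solution, and quantified at ±80 mV.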
Data set [1] in a line: Aqueous solubility assay in Normal Ringer Solution. The following applies: Normal Ringer Solution; for solubility at 40 min: saline or isotonic, kinetic from dmso stock. On the procedure:
Following vortex and incubation for a sufficient time (e.g. 40 minutes at room temperature), solutions were filtered, quenched with acetonitrile, and analyzed by Liquid Chromotography. Solubility Limits were determined by comparison to a standard curve.

The mark [2] stands for this setting: Phase 1 current, inward, whole-cell patch clamp, read-out: hTRPV3 Patch P1 Inwd.
[3] abbreviates: Phase 1 current, read-out: hTRPV3 (nM) (Phase 1).
The mark [4] stands for this setting: Phase 2 current, inward, whole-cell patch clamp, read-out: hTRPV3 Patch P2 Inwd.
The mark [5] stands for this setting: Phase 2 current, read-out: hTRPV3 (nM) (Phase 2).
[6] abbreviates: Phase 1 current, human TRPV3, read-out: hTRPV3 (nM) Phase 1.

≈ marks a conversion by molar mass, not a printed value. Counter-ions that a name gives are not always drawn. Like-named read-outs stand apart in the source and are kept apart here.

hTRPV3, sequence (Q8NET8 whole entry): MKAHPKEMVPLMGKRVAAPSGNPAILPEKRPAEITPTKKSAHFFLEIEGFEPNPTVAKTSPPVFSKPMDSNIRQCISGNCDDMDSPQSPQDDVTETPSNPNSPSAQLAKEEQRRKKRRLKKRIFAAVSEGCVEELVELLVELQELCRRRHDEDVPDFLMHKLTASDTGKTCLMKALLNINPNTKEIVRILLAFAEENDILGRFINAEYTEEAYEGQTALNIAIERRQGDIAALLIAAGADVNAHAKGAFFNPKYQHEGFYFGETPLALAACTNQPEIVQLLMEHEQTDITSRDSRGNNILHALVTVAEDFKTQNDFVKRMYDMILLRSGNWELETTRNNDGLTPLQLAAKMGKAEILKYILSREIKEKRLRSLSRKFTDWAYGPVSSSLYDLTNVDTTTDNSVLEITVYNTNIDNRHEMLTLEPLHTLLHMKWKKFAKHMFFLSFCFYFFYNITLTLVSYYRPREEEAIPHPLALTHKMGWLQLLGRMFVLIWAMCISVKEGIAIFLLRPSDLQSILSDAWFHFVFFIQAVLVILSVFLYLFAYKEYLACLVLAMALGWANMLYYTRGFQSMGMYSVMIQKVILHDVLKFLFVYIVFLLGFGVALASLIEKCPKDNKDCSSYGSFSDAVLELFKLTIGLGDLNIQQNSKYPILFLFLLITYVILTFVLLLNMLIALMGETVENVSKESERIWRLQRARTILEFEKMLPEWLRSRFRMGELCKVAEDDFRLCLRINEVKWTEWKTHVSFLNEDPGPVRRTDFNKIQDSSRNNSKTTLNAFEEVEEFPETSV

A word on the solubility: it is the concentration that dissolves in the medium under given conditions. Higher therefore signals much dissolved substance. Consider `Cl.NC(=O)c1cc(-c2cccnc2)ccc1N1CC[C@@H](Oc2ncccc2Cl)C1` [Compound 1-74, (R)-2-(3-(3-chloropyridin-2-yloxy)pyrrolidin-1-yl)-5-(pyridin-3-yl)benzamide hydrochloride], for which the IC50 on hTRPV3 (hTRPV3 Patch P2 Inwd (nM)) is more than 1000 nM; at hTRPV3 (read-out: hTRPV3 (nM) (Phase 2)), approximately 5040 nM. The same molecule gave a solubility at 40 min in data set [1] of more than 13.5 µM.

`NC(=O)c1cc(-c2ccccc2)ccc1N1CC[C@@H](Oc2ncccc2Cl)C1` [Compound 1-75, (R)-4-(3-(3-chloropyridin-2-yloxy)pyrrolidin-1-yl)biphenyl-3-carboxamide]: the IC50 is more than 1000 nM at hTRPV3 (setting [2]), approximately 2300 nM at hTRPV3 (setting [3]), 100 to 1000 nM at hTRPV3 (setting [4]) and 342 nM at hTRPV3 (setting [5]). This molecule also displayed a solubility at 40 min in data set [1] of 0.32 µM (≈ 0.126 µg/mL).

On to `CC(C)Oc1ccccc1N1CC[C@H](Oc2ccc3cc(Cl)ccc3n2)C1` [Compound 1-76, (S)-6-chloro-2-(1-(2-isopropoxyphenyl)pyrrolidin-3-yloxy)quinoline], for which the IC50 at hTRPV3 (setting [2]) is more than 1000 nM; at hTRPV3 (setting [3]), more than 3200 nM; at hTRPV3 (setting [4]), more than 1000 nM; on hTRPV3 (setting [5]), approximately 4600 nM. In data set [1] (room temperature), the “Solubility Ringer (nM)” value was “BLQ”.

With `NC(=O)c1cc(-c2cccnc2)ccc1N1CC[C@H](Oc2ccc(C(F)(F)F)cn2)C1` [Compound 1-80, (S)-5-(pyridin-3-yl)-2-(3-(5-(trifluoromethyl)pyridin-2-yloxy)pyrrolidin-1-yl)benzamide], the IC50 at hTRPV3 (setting [2]) was more than 1000 nM; on hTRPV3 (setting [3]), more than 3200 nM; on hTRPV3 (setting [4]), more than 1000 nM; at hTRPV3 (setting [5]), approximately 5900 nM. Also, the solubility at 40 min in data set [1] was more than 3.3 µM.

Regarding `NC(=O)c1cc(-c2ccccn2)ccc1N1CC[C@H](Oc2ccc(C(F)(F)F)cn2)C1` [Compound 1-81, (S)-5-(pyridin-2-yl)-2-(3-(5-(trifluoromethyl)pyridin-2-yloxy)pyrrolidin-1-yl)benzamide], the IC50 is more than 1000 nM on hTRPV3 (setting [2]), more than 3200 nM on hTRPV3 (setting [3]), more than 1000 nM at hTRPV3 (setting [4]) and 2190 nM on hTRPV3 (setting [5]). In data set [1], this molecule displayed a solubility at 40 min of approximately 1.4 µM (≈ 0.6 µg/mL).

As for `NC(=O)c1cc(-c2ccncc2)ccc1N1CC[C@H](Oc2ccc(C(F)(F)F)cn2)C1` [Compound 1-83, (S)-5-(pyridin-4-yl)-2-(3-(5-(trifluoromethyl)pyridin-2-yloxy)pyrrolidin-1-yl)benzamide], the IC50 was more than 1000 nM at hTRPV3 (setting [2]), 2840 nM at hTRPV3 (setting [3]), more than 1000 nM at hTRPV3 (setting [4]) and 3350 nM on hTRPV3 (setting [5]). The molecule also returned a solubility at 40 min in data set [1] of more than 3.9 µM.

`Cc1ccc(CN2CCC(c3ccc(Oc4ccccc4C(C)C)cc3CO)C2)nc1` (stereo not shown) [Compound 2-90, (5-(2-isopropylphenoxy)-2-(1-((5-methylpyridin-2-yl)methyl)pyrrolidin-3-yl)phenyl)methanol hydrochloride]: the IC50 at hTRPV3 (setting [6]) is 812 nM; on hTRPV3 (setting [2]) it was 100 to 1000 nM.

As to `CC(C)c1ccccc1Oc1ccc(C2CCN(Cc3ccc(Cl)cn3)C2)c(CO)c1` (stereo not shown) [Compound 2-91, (2-(1-((5-chloropyridin-2-yl)methyl)pyrrolidin-3-yl)-5-(2-isopropylphenoxy)phenyl)methanol], the IC50 at hTRPV3 (setting [6]) was 325 nM; on hTRPV3 (setting [2]) it was 100 to 1000 nM.

In the case of `CC(C)c1ccccc1Oc1ccc(C2CCN(Cc3ncccc3Cl)C2)c(CO)c1` (stereo not shown) [Compound 2-92, (2-(1-((3-chloropyridin-2-yl)methyl)pyrrolidin-3-yl)-5-(2-isopropylphenoxy)phenyl)methanol hydrochloride], the IC50 at hTRPV3 (setting [6]) is 592 nM; on hTRPV3 (setting [2]), 100 to 1000 nM.

Consider `Cc1cccc(CN2CCC(c3ccc(Oc4ccccc4C(C)C)cc3CO)C2)n1` (stereo not shown) [Compound 2-94, (5-(2-isopropylphenoxy)-2-(1-((6-methylpyridin-2-yl)methyl)pyrrolidin-3-yl)phenyl)methanol hydrochloride], for which the IC50 at hTRPV3 (setting [6]) is 339 nM; on hTRPV3 (setting [2]), 100 to 1000 nM.

Regarding `CC(C)c1ccccc1Oc1ccc(C2CCN(Cc3cccc(Cl)n3)C2)c(CO)c1` (stereo not shown) [Compound 2-96, (2-(1-((6-chloropyridin-2-yl)methyl)pyrrolidin-3-yl)-5-(2-isopropylphenoxy)phenyl)methanol hydrochloride], the IC50 at hTRPV3 (setting [6]) was 246 nM; on hTRPV3 (setting [2]), 100 to 1000 nM.

Turning to `Cc1cccc(CN2CC(c3ccc(Oc4ccccc4C(C)C)cc3C(N)=O)CC2=O)n1` (stereo not shown) [Compound 2-97, 5-(2-isopropylphenoxy)-2-(1-((6-methylpyridin-2-yl)methyl)-5-oxopyrrolidin-3-yl)benzamide], the IC50 at hTRPV3 (setting [6]) is more than 3200 nM; on hTRPV3 (setting [2]), more than 1000 nM.

For the molecule `CCc1ccccc1Oc1ccc(C2CC(=O)N(Cc3cccc(C)n3)C2)c(C(N)=O)c1` (stereo not shown) [Compound 2-98, 5-(2-ethylphenoxy)-2-(1-((6-methylpyridin-2-yl)methyl)-5-oxopyrrolidin-3-yl)benzamide], the IC50 at hTRPV3 (setting [6]) was more than 3200 nM; on hTRPV3 (setting [2]) it was more than 1000 nM.

Regarding `CC(C)c1ccccc1Oc1ccc(C2CC(=O)N(Cc3ccccn3)C2)c(C(N)=O)c1` (stereo not shown) [Compound 2-99, 5-(2-isopropylphenoxy)-2-(5-oxo-1-(pyridin-2-ylmethyl)pyrrolidin-3-yl)benzamide], the IC50 on hTRPV3 (setting [6]) was more than 3200 nM; on hTRPV3 (setting [2]), more than 1000 nM.

`CCc1ccccc1Oc1ccc(C2CC(=O)N(Cc3ccccn3)C2)c(C(N)=O)c1` (stereo not shown) [Compound 2-100, 5-(2-ethylphenoxy)-2-(5-oxo-1-(pyridin-2-ylmethyl)pyrrolidin-3-yl)benzamide]: the IC50 at hTRPV3 (setting [6]) is more than 3200 nM; on hTRPV3 (setting [2]), more than 1000 nM.

As for `CCc1ccccc1Oc1ccc(C2CC(=O)N(Cc3ccc(Cl)cn3)C2)c(C(N)=O)c1` (stereo not shown) [Compound 2-101, 2-(1-((5-chloropyridin-2-yl)methyl)-5-oxopyrrolidin-3-yl)-5-(2-ethylphenoxy)benzamide], the IC50 is more than 3200 nM at hTRPV3 (setting [6]) and more than 1000 nM on hTRPV3 (setting [2]).

Regarding `CC(C)c1ccccc1Oc1ccc(C2CC(=O)N(Cc3ccc(Cl)cn3)C2)c(C(N)=O)c1` (stereo not shown) [Compound 2-102, 2-(1-((5-chloropyridin-2-yl)methyl)-5-oxopyrrolidin-3-yl)-5-(2-isopropylphenoxy)benzamide], the IC50 at hTRPV3 (setting [6]) is approximately 2150 nM; on hTRPV3 (setting [2]) it was more than 1000 nM.

Regarding `Cc1nccnc1C(=O)N1CCC(c2ccc(-c3ccccc3C3CC3)cc2CO)C1` (stereo not shown) [Compound 2-104, (3-(2′-cyclopropyl-3-(hydroxymethyl)biphenyl-4-yl)pyrrolidin-1-yl)(3-methylpyrazin-2-yl)methanone], the IC50 on hTRPV3 (setting [6]) is 756 nM; on hTRPV3 (setting [2]) it was 100 to 1000 nM.

Consider `Cc1cnc(C(=O)N2CCC(c3ccc(-c4ccccc4C4CC4)cc3CO)C2)cn1` (stereo not shown) [Compound 2-106, (3-(2′-cyclopropyl-3-(hydroxymethyl)biphenyl-4-yl)pyrrolidin-1-yl)(5-methylpyrazin-2-yl)methanone], for which the IC50 on hTRPV3 (setting [6]) is 67 nM; on hTRPV3 (setting [2]) it was 10 to 100 nM.

For `O=C(c1cnc(Cl)cn1)N1CCC(c2ccc(-c3ccccc3C3CC3)cc2CO)C1` (stereo not shown) [Compound 2-108], the IC50 was 12.9 nM on hTRPV3 (setting [6]) and 10 to 100 nM on hTRPV3 (setting [2]).

Turning to `Cc1cncc(C(=O)N2CCC(c3ccc(-c4ccccc4C4CC4)cc3CO)C2)n1` (stereo not shown) [Compound 2-109], the IC50 on hTRPV3 (setting [6]) was 18.2 nM; at hTRPV3 (setting [2]) it was 10 to 100 nM.

Turning to `O=C(c1ccncn1)N1CCC(c2ccc(-c3ccccc3C3CC3)cc2CO)C1` (stereo not shown) [Compound 2-110, (3-(2′-cyclopropyl-3-(hydroxymethyl)biphenyl-4-yl)pyrrolidin-1-yl)(pyrimidin-4-yl)methanone], the IC50 on hTRPV3 (setting [6]) is 197 nM; at hTRPV3 (setting [2]) it was 100 to 1000 nM.

For `O=C(c1cscn1)N1CCC(c2ccc(-c3ccccc3C3CC3)cc2CO)C1` (stereo not shown) [Compound 2-111, (3-(2′-cyclopropyl-3-(hydroxymethyl)biphenyl-4-yl)pyrrolidin-1-yl)(thiazol-4-yl)methanone], the IC50 is 194 nM at hTRPV3 (setting [6]) and 100 to 1000 nM at hTRPV3 (setting [2]).

For the molecule `O=C(c1cc[nH]n1)N1CCC(c2ccc(-c3ccccc3C3CC3)cc2CO)C1` (stereo not shown) [Compound 2-112, (3-(2′-cyclopropyl-3-(hydroxymethyl)biphenyl-4-yl)pyrrolidin-1-yl)(1H-pyrazol-3-yl)methanone], the IC50 on hTRPV3 (setting [6]) was 98 nM; at hTRPV3 (setting [2]), 10 to 100 nM.

With `CCc1ccccc1-c1ccc(C2CCN(C(=O)C3CCN(C)CC3)C2)c(CO)c1` (stereo not shown) [Compound 2-115], at hTRPV3 (setting [6]), the IC50 is more than 3200 nM.

`CC(C)c1ccccc1Oc1ccc(C2CCN(C(=O)Cc3ncccc3Cl)C2)c(CO)c1` (stereo not shown) [Compound 2-117]: the IC50 on hTRPV3 (setting [6]) is approximately 3500 nM; on hTRPV3 (Phase 2 current, human TRPV3, read-out: hTRPV3 (nM) Phase 2) it was 2620 nM.

As to `COC(=O)c1cc(-c2ccccc2C(C)C)ccc1C1CCN(C(=O)C(F)(F)F)C1` (stereo not shown) [Compound 2-120], the IC50 at hTRPV3 (setting [6]) is more than 3200 nM.

As for `O=C(c1cocn1)N1CCC(c2ccc(-c3ccccc3C3CC3)cc2CO)C1` (stereo not shown) [Compound 2-121], the IC50 at hTRPV3 (setting [6]) was found to be 61.2 nM.

On to `O=C(c1ncccn1)N1CCC(c2ccc(-c3ccccc3C3CC3)cc2CO)C1` (stereo not shown) [Compound 2-122], for which the IC50 at hTRPV3 (setting [6]) was 202 nM.

With `Cc1cc(C(=O)N2CCC(c3ccc(-c4ccccc4C4CC4)cc3CO)C2)no1` (stereo not shown) [Compound 2-123], the IC50 at hTRPV3 (setting [6]) is 62.9 nM.

In the case of `O=C(c1csc(Cl)n1)N1CCC(c2ccc(-c3ccccc3C3CC3)cc2CO)C1` (stereo not shown) [Compound 2-124], the IC50 on hTRPV3 (setting [6]) was 20.7 nM.

As to “(3-(4-(4-chloro-3-ethylpyridin-2-yloxy)-2-(hydroxymethyl)phenyl)pyrrolidin-1-yl)(5-fluoropyridin-2-yl)methanone [Compound 2-43]”, the IC50 is more than 3200 nM at hTRPV3 (setting [6]) and more than 1000 nM on hTRPV3 (setting [2]).

For “(S)-(6-(2-ethylphenoxy)-3-(3-(5-(trifluoromethyl)pyridin-2-yloxy)pyrrolidin-1-yl)pyridin-2-yl)methanol [Compound 1-212]”, the IC50 is more than 1000 nM on hTRPV3 (setting [2]) and more than 3200 nM on hTRPV3 (setting [3]).
